Measurements from the NIST ThermoML archive (doi:10.1016/j.jct.2015.10.017).

Assay: mn = molality of the nth substance listed, in mol/kg
Details: 100 kPa, Liquid, Falling or rolling sphere viscometry

O=P([O-])([O-])O.[K+].[K+] [dipotassium hydrogen phosphate] + O
viscosity [mPa·s]
Details | 288.15 K | 293.15 K | 298.15 K | 303.15 K | 308.15 K
m1 = 0.01682 | 1.05 | 0.9382 | 0.8385 | 0.804 | 0.7261
m1 = 0.03476 | 1.058 | 0.9456 | 0.8455 | 0.8103 | 0.7324
m1 = 0.05442 | 1.066 | 0.9538 | 0.8532 | 0.8173 | 0.7394
m1 = 0.06215 | 1.069 | 0.957 | 0.8562 | 0.82 | 0.7421
m1 = 0.08596 | 1.079 | 0.9669 | 0.8655 | 0.8284 | 0.7505
m1 = 0.1633 | 1.112 | 0.9989 | 0.8957 | 0.8556 | 0.7777
m1 = 0.2499 | 1.149 | 1.035 | 0.9296 | 0.8861 | 0.8082
m1 = 0.3088 | 1.174 | 1.059 | 0.9526 | 0.9068 | 0.8289
m1 = 0.4795 | 1.246 | 1.13 | 1.019 | 0.9669 | 0.889
m1 = 0.628 | 1.309 | 1.192 | 1.077 | 1.019 | 0.9412
m1 = 0.7511 | 1.361 | 1.243 | 1.126 | 1.062 | 0.9846
m1 = 0.8468 | 1.401 | 1.283 | 1.163 | 1.096 | 1.018
m1 = 0.9565 | 1.448 | 1.328 | 1.206 | 1.135 | 1.057

O=P([O-])([O-])O.[Na+].[Na+] [disodium hydrogen phosphate] + O
viscosity [mPa·s]
Details | 288.15 K | 293.15 K | 298.15 K | 303.15 K | 308.15 K
m1 = 0.01669 | 1.056 | 0.9429 | 0.8421 | 0.806 | 0.7281
m1 = 0.03487 | 1.069 | 0.9556 | 0.8532 | 0.8146 | 0.7367
m1 = 0.05412 | 1.084 | 0.969 | 0.865 | 0.8238 | 0.7459
m1 = 0.06194 | 1.089 | 0.9745 | 0.8698 | 0.8275 | 0.7496
m1 = 0.08565 | 1.107 | 0.9911 | 0.8843 | 0.8387 | 0.7608
m1 = 0.162 | 1.164 | 1.044 | 0.931 | 0.8749 | 0.797
m1 = 0.255 | 1.234 | 1.109 | 0.9879 | 0.9189 | 0.841
m1 = 0.3161 | 1.28 | 1.152 | 1.025 | 0.9479 | 0.87
m1 = 0.4813 | 1.404 | 1.268 | 1.126 | 1.026 | 0.9483
m1 = 0.6261 | 1.513 | 1.369 | 1.215 | 1.095 | 1.017
m1 = 0.7501 | 1.606 | 1.456 | 1.291 | 1.154 | 1.076
m1 = 0.8501 | 1.681 | 1.525 | 1.352 | 1.201 | 1.123
m1 = 0.959 | 1.762 | 1.602 | 1.419 | 1.253 | 1.175
